The results in this text go back to ChEMBL document CHEMBL3988442, “University of Dundee, Small-Polar-MMV Screening Library” (2021).

This test concerns the target ClpP1P2 (Mycobacterium tuberculosis (strain ATCC 25618 / H37Rv), UniProt P9WPC3+P9WPC5). In words: in vitro assay to detect presence of AMC directly proportional to the activity of ClpP1P2. GHDDI collaboration. It counts as functional.

ClpP1P2, sequence (P9WPC5 whole entry): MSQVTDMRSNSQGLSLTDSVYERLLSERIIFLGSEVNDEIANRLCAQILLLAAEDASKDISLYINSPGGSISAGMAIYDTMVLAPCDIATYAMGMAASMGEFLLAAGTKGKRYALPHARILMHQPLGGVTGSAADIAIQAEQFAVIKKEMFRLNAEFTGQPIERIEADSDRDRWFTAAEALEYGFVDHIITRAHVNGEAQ
ClpP1P2, sequence (P9WPC3 whole entry): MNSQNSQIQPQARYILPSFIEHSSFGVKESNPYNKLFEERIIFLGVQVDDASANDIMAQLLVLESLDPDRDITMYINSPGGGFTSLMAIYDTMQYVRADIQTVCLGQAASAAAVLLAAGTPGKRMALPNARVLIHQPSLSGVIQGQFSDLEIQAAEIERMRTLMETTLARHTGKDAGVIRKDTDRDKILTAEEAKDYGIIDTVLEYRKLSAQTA

In general, IC50 refers to the midpoint of a concentration-inhibition curve. In the case of `CC1Cn2c(nc3c2c(=O)[nH]c(=O)n3C)O1` (stereo not drawn), the IC50 was > 100 µM.
For `CN1CCN(c2nc(O)c3c(-c4ccccn4)ccnc3n2)CC1`, the half-inhibitory concentration (IC50) is > 100 µM.
Take `CSc1ccc(CNc2n[nH]c(C)n2)cc1`: the 50% inhibitory concentration (IC50) was > 100 µM.
With `CCOC(=O)Cn1nnnc1-c1ccccc1`, the IC50 is > 100 µM.
Take `COc1cccc(OCCNS(=O)(=O)Cc2ccccc2)c1`: the 50% inhibitory concentration (IC50) is > 100 µM.
`CC(Nc1ncnc2c1NC(=O)CN2)c1ccccn1` (stereo not drawn): the half-maximal inhibitory concentration (IC50) was > 100 µM.
As for `Cc1nn(CCNc2ncnc3c2NC(=O)CN3)c(C)c1Cl`, the IC50 was > 100 µM.
In the case of `Cc1cc(C)n(CCNc2ncnc3c2NC(=O)CN3)n1`, the IC50 is > 100 µM.
Turning to `O=C1CNc2ncnc(NCc3cccs3)c2N1`, the concentration for half-maximal inhibition (IC50) is > 100 µM.
`COc1ccccc1CNc1ncnc2c1NC(=O)CN2`: the half-maximal inhibitory concentration (IC50) is > 100 µM.
Under `Cc1cc(C)n(CCCNc2ncnc3c2NC(=O)CN3)n1` stands > 100 µM; under `CCN(CC)c1nc(C)cc(C(=O)Nc2cccc(C(N)=O)c2)n1`, > 100 µM; under `O=C(c1cnn2c(-c3ccco3)ccnc12)N1CCCCCC1`, > 100 µM.
In the case of `CC1CCN(C(=O)c2cnn3c(-c4ccco4)ccnc23)CC1`, the IC50 was > 100 µM.
In the case of `O=C(NC1CCCC1)c1cnn2c(-c3ccco3)ccnc12`, the IC50 was > 100 µM.
With `Cc1cccc(NC(=O)c2ccc(OCc3nnnn3C)cc2)n1`, the half-maximal inhibitory concentration (IC50) is > 100 µM.
Take `CNC(=O)CNC(=O)c1ccc(-c2scnc2C)nc1`: the IC50 was > 100 µM.
`CNc1cncc(C2CCN(C(=O)c3coc(C)n3)CC2)n1`: the IC50 is > 100 µM.
`O[C@@H]1C[C@H]2CN(Cc3ccccc3)[C@H](Cc3ccccc3)CN2C1`: the concentration for half-maximal inhibition (IC50) is > 100 µM.
Consider `Cc1ccc(-c2nc(C3CCN(C(=O)c4cnn(C)c4)CC3)no2)cn1`, for which the half-maximal inhibitory concentration (IC50) was > 100 µM.
The value for `Nc1ncc(-c2ccc(Cl)cc2)c(C2CCCNC2)n1` (stereo not drawn) was > 100 µM; that for `CNc1cncc(C2CCCN2C(=O)Cn2ccnc2C)n1` (stereo not drawn) was > 100 µM; that for `CNc1cncc(C2CCCN2C(=O)CCn2ccnc2)n1` (stereo not drawn) was > 100 µM.
Turning to `CCN(CC)C(=O)CN1CCCC1c1nc(C)c2c(n1)N(C)C(=O)CC2` (stereo not drawn), the IC50 is > 100 µM.
In the case of `c1cc(CN2CCC(c3ccnc4nccn34)C2)ccn1` (stereo not drawn), the concentration for half-maximal inhibition (IC50) was > 100 µM.
Turning to `CNc1cncc(C2CCCN2C(=O)CCn2ccnc2C(C)C)n1` (stereo not drawn), the IC50 was > 100 µM.
On to `CCc1nccn1CCC(=O)N1CCCC1c1cncc(NC)n1` (stereo not drawn), for which the IC50 was > 100 µM.
As for `COCCNc1ncc(-c2cccc(OC)c2)c(-c2nccn2C)n1`, the IC50 is > 100 µM.
Regarding `CNc1cnc(CC2COCCN(Cc3ccccc3)C2)cn1` (stereo not drawn), the IC50 was > 100 µM.
`CNc1cnc(CC2COCCN(Cc3cccc(C)n3)C2)cn1` (stereo not drawn): the IC50 was > 100 µM.
Under `CNc1cnc(CC2COCCN(CCOc3ccccc3)C2)cn1` (stereo not drawn) stands > 100 µM; under `O=S(=O)(c1ccccc1)N1CCOCC(Cc2cccnc2)C1` (stereo not drawn), > 100 µM; under `Cn1cc(CN2CCCCC2c2ccc(-c3cccc(F)c3)nc2)cn1` (stereo not drawn), > 100 µM.
Turning to `O=C(O)C1CN(c2cncc(Cc3ccccc3)n2)C1`, the IC50 was > 100 µM.
Turning to `CN(C)S(=O)(=O)N1CCC(c2n[nH]cc2-c2ccnc(N)c2)C1` (stereo not drawn), the IC50 is > 100 µM.
Regarding `CC(C)N1CC[C@@](C)(O)[C@H](n2ccc(=O)[nH]c2=O)C1`, the half-maximal inhibitory concentration (IC50) is > 100 µM.
As for `O=C(O)C1CN(c2cncc(Cc3ccccc3F)n2)C1`, the IC50 is > 100 µM.
Under `Cc1ncc(CN2CCc3nc4cc(C(C)(C)C)nn4c(O)c3C2)n1C` stands > 100 µM; under `CC(=O)N1CCC(c2cncc(N3CCOCC3)n2)CC1`, > 100 µM; under `CCN1CCCC1CNCc1cc2cc3c(cc2[nH]c1=O)OCCO3` (stereo not drawn), > 100 µM.
Take `CCN1CCCC1CNCc1cc2cc(OC)c(OC)cc2[nH]c1=O` (stereo not drawn): the half-inhibitory concentration (IC50) is > 100 µM.
Under `CCN1CCCC1CNCc1cc2cc(OC)ccc2[nH]c1=O` (stereo not drawn) stands > 100 µM; under `CN1CCC(c2nccnc2Nc2cnccn2)CC1`, > 100 µM.
In the case of `O=C1CN(Cc2ccc3ccccc3n2)CCN1C1CCCC1`, the 50% inhibitory concentration (IC50) is > 100 µM.
Consider `c1ccc(O[C@H]2C[C@@H]3CN(Cc4cnccn4)C[C@@H]3C2)cc1`, for which the IC50 was > 100 µM.
For the molecule `COCCNCc1cc2c(C)cc(C)cc2n2c(=O)n(C)nc12`, the IC50 was > 100 µM.
The value for `CCOCCCNCc1cc2c(C)cc(C)cc2n2c(=O)n(C)nc12` was > 100 µM.
For `NC(=O)CN1CCC(c2cc(C(F)(F)F)n3ccnc3n2)CC1`, the half-inhibitory concentration (IC50) is > 100 µM.
`COc1ccccc1-c1nc(C(=O)N(C)C)n2ccncc12`: the 50% inhibitory concentration (IC50) was > 100 µM.
The value for `COc1ccccc1-c1nc(C(=O)N2CCOCC2)n2ccncc12` was > 100 µM; that for `O=C(NCc1cccnc1)c1ccc2nccn2c1` was > 100 µM; that for `CN(C)C(=O)c1nc(-c2ccc(S(C)(=O)=O)cc2)c2ccccn12` was > 100 µM.
`CN(C)c1cc(C(F)(F)F)cc(-c2ccc(C(=O)O)cc2)n1`: the IC50 was > 100 µM.
`N#Cc1cc2cc(Cl)cnc2nc1O`: the IC50 was > 100 µM.
On to `c1cc2nc(C3CCNCC3)nn2cc1NC1CCC1`, for which the IC50 is > 100 µM.
Consider `CC(C)n1c2ccccc2c2c1cc(C(=O)N(C)C)n2C(=O)N(C)C`, for which the concentration for half-maximal inhibition (IC50) is > 100 µM.
Take `Cc1nc(-c2nc(C(=O)N(C)C)c3ccccn23)cn1C(C)C`: the IC50 is > 100 µM.
On to `Cc1nc(-c2nc(C(=O)NC3CC3)c3ccccn23)cn1C(C)C`, for which the IC50 is > 100 µM.
The value for `CC(C)n1cnc(-c2nc(C(=O)NC3CC3)c3ccccn23)c1` was > 100 µM; that for `Cn1ccc(-c2cc(C(=O)N3CCCCC3)c3ccccn23)n1` was > 100 µM.
As for `Cn1ccc(-c2cc(C(=O)N3CCC(C(N)=O)CC3)c3ccccn23)n1`, the IC50 is > 100 µM.
Regarding `Cc1nc(NCC2CC2)nc2c1COCC21CCN(C(=O)C(C)(C)C)C1` (stereo not drawn), the IC50 is > 100 µM.
For `O=C(NCC1CC1)c1c2c(N3CCCC3)ncnc2n2ccccc12`, the IC50 was > 100 µM.
Take `CCNC(=O)c1c2c(N3CCN(C)CC3)ncnc2n2ccccc12`: the concentration for half-maximal inhibition (IC50) is > 100 µM.
Under `O=C(NC1CCC1)c1c2c(N3CCCC3)ncnc2n2ccccc12` stands > 100 µM.
`O=C(c1c2c(N3CCCC3)ncnc2n2ccccc12)N1CCCC1`: the IC50 was > 100 µM.
In the case of `CN1CCN(c2ncnc3c2c(C(=O)NC2CC2)c2ccccn23)CC1`, the half-inhibitory concentration (IC50) was > 100 µM.
For `Cc1sc2c(C3CCCNC3)nc(Nc3cccc(F)c3)n2c1C` (stereo not drawn), the IC50 was > 100 µM.
Consider `Cc1cnc(CCNc2cccc(CC3CCCNC3)n2)s1` (stereo not drawn), for which the concentration for half-maximal inhibition (IC50) is > 100 µM.
Regarding `CCc1nccn1-c1cccc(C2CCCN2)n1` (stereo not drawn), the IC50 was > 100 µM.
Regarding `CNC(=O)c1cc2c(nc1NCC1CC1)CCN(c1ccncn1)CC2`, the half-inhibitory concentration (IC50) was > 100 µM.
As for `CN(C)C1CCN(C(=O)c2cc(-c3ccn(C)n3)n3ccccc23)CC1`, the half-maximal inhibitory concentration (IC50) was > 100 µM.
`c1ccc(CN2CCc3ncnc(-c4ccoc4)c3CC2)nc1`: the IC50 was > 100 µM.
As for `Cn1cc(-c2ncc3c(c2C(=O)O)CCN(Cc2ccccn2)C3)cn1`, the half-maximal inhibitory concentration (IC50) was > 100 µM.
For `O=C(NCc1ccccn1)[C@H]1COC[C@H]2CN(C3CCCC3)C[C@H]21`, the IC50 was > 100 µM.
Under `CCOCC1CN(c2ccncn2)Cc2cnn(CC)c21` (stereo not drawn) stands > 100 µM; under `Cc1nc(CN2CCC(O)(c3ccccc3F)CC2)c2ccccn12`, > 100 µM; under `Cc1c[nH]nc1C1CCCN1Cc1nccn1C` (stereo not drawn), > 100 µM.
